Data as given in the NIST ThermoML archive (doi:10.1021/acs.jced.8b00680).
“And” between values parts separate entries of the source, which are not always exact repeats. Equal entries are not always repeated.

Settings: Liquid, Ebulliometric method (Recirculating still)

CC(C)CC(C)(C)C [2,2,4-trimethylpentane]
Settings | vapor or sublimation pressure [kPa]
372.26 K | 101.3

CCCCCCCCCCO [decan-1-ol]
Settings | vapor or sublimation pressure [kPa]
469.23 K | 40
469.83 K | 40.03
472.98 K | 44.4
475.4 K | 47.97
476.8 K | 50.19
479.42 K | 54.07
481.36 K | 57.04
484.05 K | 61.26
487.9 K | 67.43
491.16 K | 73.44
492.56 K | 76.32
494.46 K | 79.92
496.88 K | 85.24

CCCCCCCCCC [decane]
Settings | vapor or sublimation pressure [kPa]
414.08 K | 40
414.18 K | 40
420.5 K | 48.74
425.83 K | 57.04
431.14 K | 66.32
435.6 K | 75.05
439.77 K | 83.97
443.51 K | 92.72
446.01 K | 98.88

CCCCCCCCCCCC [dodecane]
Settings | vapor or sublimation pressure
453.92 K | 40.08 kPa and 40 kPa
456.87 K | 43.58 kPa
459.31 K | 46.71 kPa
461.72 K | 49.93 kPa
465.47 K | 55.35 kPa
467.52 K | 58.41 kPa
470.69 K | 63.63 kPa
474.33 K | 69.97 kPa
478.47 K | 77.75 kPa

CCO [ethanol]
Settings | vapor or sublimation pressure [kPa]
351.44 K | 101.3

CCCCCCCO [heptan-1-ol]
Settings | vapor or sublimation pressure [kPa]
419.4 K | 40
420.4 K | 40.12
423 K | 44.2
426.27 K | 49.44
430.35 K | 56.78
433.75 K | 63.5
438.22 K | 73.4
441.44 K | 81.04
444.34 K | 88.14

CCCCCCO [hexan-1-ol]
Settings | vapor or sublimation pressure [kPa]
402.36 K | 40
403.66 K | 40.02
407.89 K | 48.72
413.31 K | 58.84
418.35 K | 69.27
421.9 K | 77.4
425.15 K | 85.63
427.54 K | 92.07
429.19 K | 99.78

CCCCCCCCC [nonane]
Settings | vapor or sublimation pressure [kPa]
392.17 K | 40
392.77 K | 39.96
399.76 K | 49.24
404.65 K | 58.04
409.14 K | 66.68
413.23 K | 75.48
417.05 K | 84.18
420.83 K | 93.72
423.88 K | 101.7

CCCCCCCCO [octan-1-ol]
Settings | vapor or sublimation pressure [kPa]
436.67 K | 40
437.67 K | 40.08
443.61 K | 48.62
445.86 K | 52.15
450.45 K | 60.03
454.35 K | 67.6
457.08 K | 74.25
460.31 K | 81.52
463.5 K | 89.16
466.8 K | 97.64

CCCCCO [pentan-1-ol]
Settings | vapor or sublimation pressure [kPa]
384.45 K | 40
384.85 K | 40.01
392.76 K | 54.41
398.11 K | 66.15
400.95 K | 72.93
404.59 K | 82.75
407.17 K | 90.21
410.73 K | 101.2

CCCCCCCCCCCCCC [tetradecane]
Settings | vapor or sublimation pressure [kPa]
489.17 K | 40
489.26 K | 40.04
491.29 K | 42.42
492.53 K | 43.8
495.18 K | 46.96
496.08 K | 48.13
497.96 K | 50.5
498.07 K | 50.7

CCCCCCCCCCC [undecane]
Settings | vapor or sublimation pressure [kPa]
434.5 K | 40
434.6 K | 40.04
438.71 K | 45.18
442.2 K | 50.04
445.4 K | 54.82
448.68 K | 60.13
451.59 K | 65.09
454.55 K | 70.48
458.59 K | 78.59
